Reference: US20230416199A1, “INHIBITORS OF AMINO ACID TRANSPORT” (ICAHN SCHOOL OF MEDICINE AT MOUNT SINAI, priority 2020, published 2023)

Key:
rASCT2 = biological target: T1, rASCT2 (Rattus norvegicus, UniProt D3ZJ25); assay: Electrophysiology (whole-cell current recording) of transfected HEK293 cells, rASCT2; type: cell-based; details: apparent Ki in the absence of substrate, HEK293, mean ± SD; read-out: Ki rASCT2
T1 construct: expressed in transfected cells; host or cells: HEK293 (ATCC CRL-11268), transient transfection
T1 sequence (D3ZJ25 1-555): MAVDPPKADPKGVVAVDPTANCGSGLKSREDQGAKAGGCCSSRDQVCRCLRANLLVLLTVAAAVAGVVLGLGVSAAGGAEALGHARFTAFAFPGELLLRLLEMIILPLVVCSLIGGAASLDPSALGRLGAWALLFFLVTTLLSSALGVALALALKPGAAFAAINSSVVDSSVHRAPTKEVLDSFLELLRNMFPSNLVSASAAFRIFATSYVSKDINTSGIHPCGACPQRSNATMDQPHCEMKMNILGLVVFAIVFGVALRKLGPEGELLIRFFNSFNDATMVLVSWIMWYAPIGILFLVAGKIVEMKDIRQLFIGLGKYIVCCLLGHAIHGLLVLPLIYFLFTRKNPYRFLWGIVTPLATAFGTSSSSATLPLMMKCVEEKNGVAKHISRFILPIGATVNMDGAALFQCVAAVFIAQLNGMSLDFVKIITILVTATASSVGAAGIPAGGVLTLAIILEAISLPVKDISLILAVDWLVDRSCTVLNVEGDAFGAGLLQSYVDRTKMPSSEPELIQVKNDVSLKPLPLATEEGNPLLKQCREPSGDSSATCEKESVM
Method: (§1) Human embryonic kidney 293 (HEK293, ATCC CRL-11268) cells were cultured in DMEM media supplemented with 10% (v v) fetal bovine serum (FBS), 2 mM glutamine, 1% penicillin streptomycin solution, 1 mM sodium pyruvate and non-essential amino acids. Cells were maintained at 37° C. in a fully humidified atmosphere containing 5% CO2. rASCT2, hASCT2, hASCT1, EAAT1, EAAT2, EAAC1, EAAT5 and YFP complementary DNAs were each used to transiently transfect HEK293 using POLYPLUS Jet-prime transfection reagent. Cells were analyzed using electrophysiological techniques 24-40 hours after transfection.
(§2) Stock solutions of inhibitor was prepared in dimethyl sulfoxide (DMSO) up to 100 mM. Dilutions to working concentrations were made using external buffer. […] For rASCT2, hASCT2 and hASCT1, external buffer contained 140 mM NaCl, 2 mM MgCl2, 2 mM CaCl2), and 10 mM HEPES, pH 7.40 while internal pipette solution comprised of 130 mM NaSCN, 2 mM MgCl2, 10 mM EGTA, 10 mM HEPES and 10 mM alanine, pH 7.40. For specificity experiments with EAAT1, EAAT2, EAAC1 and EAAT5, internal solution contained 10 mM glutamate instead of alanine. Compounds were applied to HEK293 cells expressing DNA of interest suspended from a current recording electrode in whole cell configuration through a rapid solution exchange device. Cells are immersed in external buffer bath used to dissolve the inhibitors. The open pipette resistance was between 3 and 6 MΩ. Series resistance was not compensated in these experiments due to relatively small currents. Currents traces were recorded using an Adams and List EPC7 amplifier and digitized using a Molecular Devices Digidata A/D converter.
(§3) Linear and nonlinear curve fitting of the experimental data were analyzed using MicroCal Origin software. Nonlinear dose-response relationships were fitted with a Michaelis-Menten-like equation to obtain apparent Ki values in the absence of substrate (see TABLE 2 for Ki values). The figures show representative current traces and dose-response curves for hACST2 and rASCT2, used to obtain Ki values in TABLE 2 for compound SN 40. At least four experiments were performed with at least three different cells. Error bars in all graphs, e.g., in FIG. 1B and FIG. 1C and tables (Ki values) represent mean±SD.

hASCT2 = biological target: T2, hASCT2 (Homo sapiens, UniProt Q15758); assay: Electrophysiology (whole-cell current recording) of transfected HEK293 cells, hASCT2; type: cell-based; details: apparent Ki in the absence of substrate, HEK293, mean ± SD; read-out: Ki hASCT2
T2 construct: expressed in transfected cells; host or cells: HEK293 (ATCC CRL-11268), transient transfection
T2 sequence (Q15758 1-541): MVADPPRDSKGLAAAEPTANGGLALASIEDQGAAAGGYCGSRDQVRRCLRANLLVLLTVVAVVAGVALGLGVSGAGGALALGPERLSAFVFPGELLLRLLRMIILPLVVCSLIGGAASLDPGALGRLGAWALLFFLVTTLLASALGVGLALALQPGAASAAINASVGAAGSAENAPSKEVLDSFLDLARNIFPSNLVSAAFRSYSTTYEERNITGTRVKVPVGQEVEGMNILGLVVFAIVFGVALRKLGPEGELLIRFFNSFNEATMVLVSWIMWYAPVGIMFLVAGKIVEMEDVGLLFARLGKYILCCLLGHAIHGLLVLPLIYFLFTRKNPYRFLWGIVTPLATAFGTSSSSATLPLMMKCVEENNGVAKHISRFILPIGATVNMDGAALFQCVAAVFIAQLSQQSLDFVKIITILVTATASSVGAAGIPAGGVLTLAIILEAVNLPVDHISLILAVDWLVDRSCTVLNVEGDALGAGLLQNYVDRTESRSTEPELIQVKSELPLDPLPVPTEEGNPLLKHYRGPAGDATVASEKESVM
Method: as §1, §2, §3

Row | SMILES | Ki (rASCT2) [nM] | Ki (hASCT2) [nM]
1 | O=C(O)[C@@H]1C[C@H](OCc2ccc(-c3ccccc3)cc2)CN1 [SN 39] | 1130 ± 100 | 980 ± 100
2 | O=C(O[C@@H]1CN[C@H](C(=O)O)C1)c1ccc(-c2ccc(F)cc2)cc1 [SN 08] | 650 ± 40 | 740 ± 100
3 | N[C@@H](COC(=O)c1ccc(NC(=O)c2ccccc2)cc1)C(=O)O [SN 25] | 4400 ± 1500 | 22600 ± 3700
4 | Cc1ccccc1-c1ccc(C(=O)O[C@@H]2CN[C@H](C(=O)O)C2)cc1 [SN 10] | 970 ± 100 | 1120 ± 100
5 | O=C(O[C@@H]1CN[C@H](C(=O)O)C1)c1ccc(-c2ccc(C(F)(F)F)cc2)cc1 [SN 09] | 270 ± 50 | 1050 ± 200
6 | O=C(O[C@@H]1CN[C@H](C(=O)O)C1)c1ccc(-c2ccccc2)cc1 [SN 05] | 730 ± 100 | 870 ± 100
7 | Cc1ccccc1-c1ccc(C(=O)O[C@@H]2CN[C@H](C(=O)O)C2)cc1C [SN 11] | 870 ± 100 | 9130 ± 1700
8 | O=C(O[C@@H]1CN[C@H](C(=O)O)C1)c1ccc(-c2ccccc2)nc1 [SN 19] | 890 ± 200 | 7930 ± 900
